Where “and” joins values, the source holds several entries; their conditions need not be identical. Equal values may be shown once. Calls of active or inactive are those of the source. How the calls were made is not given here.
Test system: rodent lifetime carcinogenesis bioassay, tumor incidence TD50
Assay: carcinogenic potency in animals, long-term in vivo studies, CPDB compilation (AID 1745844)

## CC1CCC(C(C)C)C(O)C1 (configuration not stated)
mouse, strain B6C3F1, females, in feed, site: any site (literature study), lesion: several types, types named in the paper, dosed 103 weeks, study length 104 weeks
  carcinogen call: negative (inactive)
mouse, strain B6C3F1, females, in feed, site: liver, lesion: hepatocellular adenoma + hepatocellular carcinoma + neoplastic nodule, dosed 103 weeks, study length 104 weeks
  TD50: 5190 mg/kg/day
mouse, strain B6C3F1, females, in feed, site: lung, lesion: alveolar/bronchiolar adenoma + alveolar/bronchiolar carcinoma, dosed 103 weeks, study length 104 weeks
  TD50: 3170 mg/kg/day
mouse, strain B6C3F1, males, in feed, site: any site (literature study), lesion: several types, types named in the paper, dosed 103 weeks, study length 104 weeks
  TD50: 2750 mg/kg/day (inactive)
mouse, strain B6C3F1, males, in feed, site: liver, lesion: hepatocellular adenoma + hepatocellular carcinoma + neoplastic nodule, dosed 103 weeks, study length 104 weeks
  TD50: 1960 mg/kg/day
rat, strain Fischer 344, females, in feed, site: any site (literature study), lesion: several types, types named in the paper, dosed 103 weeks, study length 105 weeks
  carcinogen call: negative (inactive)
rat, strain Fischer 344, males, in feed, site: any site (literature study), lesion: several types, types named in the paper, dosed 103 weeks, study length 105 weeks
  TD50: 1410 mg/kg/day (inactive)
rat, strain Fischer 344, males, in feed, site: liver, lesion: hepatocellular adenoma + hepatocellular carcinoma + neoplastic nodule, dosed 103 weeks, study length 105 weeks
  TD50: 5690 mg/kg/day

## O=C1CCc2ccccc2O1
mouse, strain B6C3F1, females, by gavage, site: all sites, lesion: hemangioma + hemangiosarcoma, dosed 103 weeks, study length 104 weeks
  TD50: 4810 mg/kg/day
mouse, strain B6C3F1, females, by gavage, site: all sites, lesion: hemangiosarcoma, dosed 103 weeks, study length 104 weeks
  TD50: 6140 mg/kg/day
mouse, strain B6C3F1, females, by gavage, site: any site (literature study), lesion: several types, types named in the paper, dosed 103 weeks, study length 104 weeks
  TD50: 541 mg/kg/day
mouse, strain B6C3F1, females, by gavage, site: liver, lesion: hepatocellular adenoma + hepatoblastoma + hepatocellular carcinoma, dosed 103 weeks, study length 104 weeks
  TD50: 723 mg/kg/day
mouse, strain B6C3F1, females, by gavage, site: liver, lesion: hepatocellular adenoma + hepatocellular carcinoma, dosed 103 weeks, study length 104 weeks
  TD50: 723 mg/kg/day
mouse, strain B6C3F1, females, by gavage, site: liver, lesion: hepatocellular adenoma, dosed 103 weeks, study length 104 weeks
  TD50: 790 mg/kg/day
mouse, strain B6C3F1, females, by gavage, site: lung, lesion: alveolar/bronchiolar adenoma + alveolar/bronchiolar carcinoma, dosed 103 weeks, study length 104 weeks
  TD50: 96100 mg/kg/day
mouse, strain B6C3F1, males, by gavage, site: all sites, lesion: histiocytic sarcoma + malignant lymphoma, histiocytic type + malignant lymphoma, lymphocytic type + malignant lymphoma, dosed 103 weeks, study length 104 weeks
  TD50: 3320 mg/kg/day
mouse, strain B6C3F1, males, by gavage, site: all sites, lesion: malignant lymphoma, histiocytic type + malignant lymphoma, mixed type + malignant lymphoma, lymphocytic type + malignant lymph, dosed 103 weeks, study length 104 weeks
  TD50: 3780 mg/kg/day (inactive)
mouse, strain B6C3F1, males, by gavage, site: any site (literature study), lesion: several types, types named in the paper, dosed 103 weeks, study length 104 weeks
  TD50: 1400 mg/kg/day
mouse, strain B6C3F1, males, by gavage, site: liver, lesion: hepatocellular adenoma + hepatoblastoma + hepatocellular carcinoma, dosed 103 weeks, study length 104 weeks
  TD50: 2890 mg/kg/day
mouse, strain B6C3F1, males, by gavage, site: lung, lesion: alveolar/bronchiolar adenoma + alveolar/bronchiolar carcinoma, dosed 103 weeks, study length 104 weeks
  TD50: 3260 mg/kg/day
mouse, strain B6C3F1, males, by gavage, site: lung, lesion: alveolar/bronchiolar adenoma, dosed 103 weeks, study length 104 weeks
  TD50: 596 mg/kg/day
rat, strain Fischer 344, females, by gavage, site: adrenal medulla, lesion: pheochromocytoma benign, bilateral + pheochromocytoma, benign, dosed 103 weeks, study length 104 weeks
  TD50: 538 mg/kg/day (inactive)
rat, strain Fischer 344, females, by gavage, site: any site (literature study), lesion: several types, types named in the paper, dosed 103 weeks, study length 104 weeks
  TD50: 3180 mg/kg/day
rat, strain Fischer 344, males, by gavage, site: any site (literature study), lesion: several types, types named in the paper, dosed 38 weeks, study length 104 weeks
  TD50: 1370 mg/kg/day
rat, strain Fischer 344, males, by gavage, site: any site (literature study), lesion: several types, types named in the paper, dosed 64 weeks, study length 104 weeks
  TD50: 186 mg/kg/day
rat, strain Fischer 344, males, by gavage, site: any site (literature study), lesion: several types, types named in the paper, dosed 103 weeks, study length 104 weeks
  TD50: 143 mg/kg/day
rat, strain Fischer 344, males, by gavage, site: kidney, lesion: transitional-cell carcinoma, dosed 103 weeks, study length 104 weeks
  TD50: 11800 mg/kg/day
rat, strain Fischer 344, males, by gavage, site: kidney, lesion: tubule adenoma, dosed 38 weeks, study length 104 weeks
  TD50: 310 mg/kg/day
rat, strain Fischer 344, males, by gavage, site: kidney, lesion: tubule adenoma, dosed 64 weeks, study length 104 weeks
  TD50: 408 mg/kg/day
rat, strain Fischer 344, males, by gavage, site: kidney, lesion: tubule adenoma, dosed 103 weeks, study length 104 weeks
  TD50: 3870 mg/kg/day and 2970 mg/kg/day
rat, strain Fischer 344, males, by gavage, site: liver, lesion: hepatocellular adenoma + hepatoblastoma + hepatocellular carcinoma, dosed 38 weeks, study length 104 weeks
  TD50: 819 mg/kg/day
rat, strain Fischer 344, males, by gavage, site: liver, lesion: hepatocellular adenoma + hepatoblastoma + hepatocellular carcinoma, dosed 103 weeks, study length 104 weeks
  TD50: 1380 mg/kg/day
rat, strain Fischer 344, males, by gavage, site: skin, lesion: basal-cell adenoma + keratoacanthoma + squamous-cell papilloma, dosed 64 weeks, study length 104 weeks
  TD50: 258 mg/kg/day
rat, strain Fischer 344, males, by gavage, site: skin, lesion: basal-cell adenoma, dosed 64 weeks, study length 104 weeks
  TD50: 378 mg/kg/day
rat, strain Fischer 344, males, by gavage, site: skin, lesion: fibroma, dosed 64 weeks, study length 104 weeks
  TD50: 403 mg/kg/day
rat, strain Fischer 344, males, by gavage, site: testis, lesion: interstitial-cell adenoma, dosed 64 weeks, study length 104 weeks
  TD50: 51.7 mg/kg/day
rat, strain Fischer 344, males, by gavage, site: testis, lesion: interstitial-cell adenoma, dosed 103 weeks, study length 104 weeks
  TD50: 70.6 mg/kg/day

From PubChem BioAssay AID1745844 (Carcinogenic Potency Database (CPDB), 2022)
